{
  "source": "ChEMBL document CHEMBL5500373",
  "about": "“Lead optimization based design, synthesis, and pharmacological evaluation of quinazoline derivatives as multi-targeting agents for Alzheimer's disease treatment” (Eur J Med Chem, 2024)",
  "key": {"Acetylcholinesterase [1]": {"target": "T1, Acetylcholinesterase (Homo sapiens, UniProt P22303)", "T1 sequence (P22303 whole entry)": "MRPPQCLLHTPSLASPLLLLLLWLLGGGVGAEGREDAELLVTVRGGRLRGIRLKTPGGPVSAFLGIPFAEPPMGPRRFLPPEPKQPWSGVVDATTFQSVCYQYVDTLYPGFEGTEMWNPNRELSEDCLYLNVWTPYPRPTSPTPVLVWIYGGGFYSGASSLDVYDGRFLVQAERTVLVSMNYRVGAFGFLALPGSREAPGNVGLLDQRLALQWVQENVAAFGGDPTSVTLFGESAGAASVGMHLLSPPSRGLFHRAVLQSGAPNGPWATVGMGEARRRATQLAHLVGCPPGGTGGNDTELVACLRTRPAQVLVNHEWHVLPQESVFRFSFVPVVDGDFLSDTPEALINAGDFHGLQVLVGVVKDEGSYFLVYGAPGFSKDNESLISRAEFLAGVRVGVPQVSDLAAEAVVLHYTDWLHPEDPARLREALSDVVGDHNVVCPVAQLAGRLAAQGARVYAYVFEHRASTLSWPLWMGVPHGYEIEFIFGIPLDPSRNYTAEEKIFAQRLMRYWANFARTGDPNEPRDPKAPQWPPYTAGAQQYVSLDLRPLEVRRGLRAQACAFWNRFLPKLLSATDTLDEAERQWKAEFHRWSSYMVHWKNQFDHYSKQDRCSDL", "experiment": "Inhibition of human erythrocyte AChE using acetylthiocholine iodide as substrate preincubated for 30 mins followed by substrate addition and measured after 30 mins by DTNB based Ellman's method"}, "Cholinesterase": {"target": "Cholinesterase (Homo sapiens, UniProt P06276)", "sequence (P06276 whole entry)": "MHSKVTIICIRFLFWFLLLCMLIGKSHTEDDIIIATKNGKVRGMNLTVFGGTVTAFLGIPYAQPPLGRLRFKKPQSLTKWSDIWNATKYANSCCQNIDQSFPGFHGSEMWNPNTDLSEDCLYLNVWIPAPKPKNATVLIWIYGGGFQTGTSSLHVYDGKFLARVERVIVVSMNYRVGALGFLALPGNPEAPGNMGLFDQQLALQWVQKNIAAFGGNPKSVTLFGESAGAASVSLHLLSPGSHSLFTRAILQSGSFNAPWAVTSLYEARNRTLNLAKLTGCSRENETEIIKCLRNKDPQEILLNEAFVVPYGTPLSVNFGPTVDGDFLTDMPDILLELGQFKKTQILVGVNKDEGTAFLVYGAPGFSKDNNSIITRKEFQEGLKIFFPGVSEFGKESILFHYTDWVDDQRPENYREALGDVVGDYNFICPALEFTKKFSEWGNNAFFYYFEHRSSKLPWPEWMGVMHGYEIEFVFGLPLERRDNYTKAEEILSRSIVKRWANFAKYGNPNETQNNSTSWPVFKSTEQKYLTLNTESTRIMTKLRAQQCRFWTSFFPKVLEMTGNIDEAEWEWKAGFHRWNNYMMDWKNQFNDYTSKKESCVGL", "experiment": "Inhibition of human serum BChE using butyrylthiocholine iodide as substrate preincubated for 30 mins followed by substrate addition and measured after 30 mins by DTNB based Ellman's method"}, "Acetylcholinesterase [2]": {"target": "T1, Acetylcholinesterase", "experiment": "Non-competitive inhibition of human AChE using varying concentrations of acetylthiocholine iodide as substrate assessed as reduction in Vmax with constant Km at 0.03 to 0.3 uM by Lineweaver-Burk double reciprocal plot analysis", "conditions": "dose 0.03-0.3 µM"}, "Acetylcholinesterase [3]": {"target": "T1, Acetylcholinesterase", "experiment": "Non-competitive inhibition of human AChE using acetylthiocholine iodide as substrate assessed as inhibition constant at 0.03 to 0.3 uM by Dixon plot analysis"}, "Acetylcholinesterase [4]": {"target": "T1, Acetylcholinesterase", "experiment": "Inhibition of human AChE using acetylthiocholine iodide as substrate assessed as reduction in enzyme activity at 10 to 100 times IC50 incubated for 30 mins"}, "[5]": {"target": "Amyloid-beta precursor protein (Homo sapiens) (UniProt P05067)", "sequence (P05067 whole entry, the tested form may be a part)": "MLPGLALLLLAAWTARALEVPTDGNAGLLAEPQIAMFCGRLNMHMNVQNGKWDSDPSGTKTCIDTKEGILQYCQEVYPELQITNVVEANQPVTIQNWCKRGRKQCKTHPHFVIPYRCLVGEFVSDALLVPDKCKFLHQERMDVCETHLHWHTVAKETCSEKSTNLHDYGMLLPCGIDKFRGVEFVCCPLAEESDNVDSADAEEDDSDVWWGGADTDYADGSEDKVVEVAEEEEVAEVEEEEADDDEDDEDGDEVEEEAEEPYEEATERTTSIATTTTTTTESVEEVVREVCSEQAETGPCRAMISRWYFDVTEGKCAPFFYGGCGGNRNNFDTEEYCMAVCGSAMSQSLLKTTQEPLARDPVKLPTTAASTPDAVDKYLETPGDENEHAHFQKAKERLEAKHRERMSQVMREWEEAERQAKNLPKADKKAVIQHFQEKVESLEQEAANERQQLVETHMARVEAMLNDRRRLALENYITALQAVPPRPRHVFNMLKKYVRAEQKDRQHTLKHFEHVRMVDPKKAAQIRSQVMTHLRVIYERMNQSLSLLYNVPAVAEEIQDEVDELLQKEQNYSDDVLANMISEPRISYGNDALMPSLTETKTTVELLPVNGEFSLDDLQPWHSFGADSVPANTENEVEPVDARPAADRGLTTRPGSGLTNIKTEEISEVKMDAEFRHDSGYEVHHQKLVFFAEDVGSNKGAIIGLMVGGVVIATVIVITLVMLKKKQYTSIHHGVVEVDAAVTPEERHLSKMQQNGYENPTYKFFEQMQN", "experiment": "Inhibition of self induced amyloid beta (1 to 42 residues) (unknown origin) aggregation assessed as reduction in NFI measured after 48 hrs by thioflavin T based fluorescence analysis", "conditions": "dose 5-20 µM"}, "[6]": {"target": "Amyloid-beta precursor protein (Homo sapiens) (UniProt P05067)", "experiment": "Inhibition of human AChE induced amyloid beta (1 to 42 residues) (unknown origin) aggregation assessed as reduction in NFI measured after 48 hrs by thioflavin T based fluorescence analysis", "conditions": "dose 5-20 µM"}, "[7]": {"target": "Amyloid-beta precursor protein (Homo sapiens) (UniProt P05067)", "experiment": "Inhibition of amyloid beta (1 to 42 residues) (unknown origin) aggregation assessed as reduction in massive oligomers measured after 3 days by AFM analysis", "conditions": "time 3.0 day"}, "[8]": {"target": "Amyloid-beta precursor protein (Homo sapiens) (UniProt P05067)", "experiment": "Inhibition of amyloid beta (1 to 42 residues) (unknown origin) aggregation assessed as reduction in fibrils measured after 3 days by AFM analysis", "conditions": "time 3.0 day"}, "[9]": {"target": "Amyloid-beta precursor protein (Homo sapiens) (UniProt P05067)", "experiment": "Inhibition of amyloid beta (1 to 42 residues) (unknown origin) aggregation assessed as disaggregation by measuring reduction in fluorescence intensity measured after 3 days by confocal microscopic analysis", "conditions": "time 3.0 day"}, "[10]": {"experiment": "Acute toxicity in female Wistar rat assessed as signs of toxicity at 100 to 500 mg/kg, po measured after 14 days", "format": "organism-based", "conditions": "in vivo, 336 h, dose 100-500 mg/kg, time 14 day"}, "[11]": {"experiment": "Acute toxicity in female Wistar rat assessed as weight loss at 100 to 500 mg/kg, po measured upto 5 days", "format": "organism-based", "conditions": "in vivo, 120 h, dose 100-500 mg/kg, time < 5 day"}, "[12]": {"experiment": "Acute toxicity in female Wistar rat assessed as effect on renal functional parameters at 100 to 500 mg/kg, po measured after 14 days", "format": "organism-based", "conditions": "in vivo, 336 h, dose 100-500 mg/kg, time 14 day"}, "[13]": {"experiment": "Acute toxicity in female Wistar rat assessed as effect on hepatic functional parameters at 100 to 500 mg/kg, po measured after 14 days", "format": "organism-based", "conditions": "in vivo, 336 h, dose 100-500 mg/kg, time 14 day"}, "[14]": {"experiment": "Acute toxicity in female Wistar rat assessed as histopathological changes in kidneys at 100 to 500 mg/kg, po measured after 14 days", "format": "organism-based", "conditions": "in vivo, 336 h, dose 100-500 mg/kg, time 14 day"}, "[15]": {"experiment": "Acute toxicity in female Wistar rat assessed as histopathological changes in liver at 100 to 500 mg/kg, po measured after 14 days", "format": "organism-based", "conditions": "in vivo, 336 h, dose 100-500 mg/kg, time 14 day"}, "Rattus norvegicus [16]": {"system": "Rattus norvegicus", "experiment": "(§1) Reversal of amyloid beta (1 to 42 residues) induced cognitive impairment in female Wistar rat assessed as reduction in escape latency time at 20 mg/kg, po pretreated with amyloid beta for 7 days followed by compound administration and measured after 5 days by Morris water maze test", "format": "functional, organism-based", "conditions": "time 5.0 day"}, "Rattus norvegicus [17]": {"system": "Rattus norvegicus", "experiment": "as §1, with “amyloid beta level in brain hippocampus” for “escape latency time”, “immunohistochemistry analysis” for “Morris water maze test”", "format": "functional, organism-based", "conditions": "time 5.0 day"}, "Rattus norvegicus [18]": {"system": "Rattus norvegicus", "experiment": "as §1, with “BACE-1 level in brain hippocampus” for “escape latency time”, “immunohistochemistry analysis” for “Morris water maze test”", "format": "functional, organism-based", "conditions": "time 5.0 day"}, "Rattus norvegicus [19]": {"system": "Rattus norvegicus", "experiment": "as §1, with “increase” for “reduction”, “neuronal density in brain” for “escape latency time”, “Nissls staining based light microscopic analysis” for “Morris water maze test”", "format": "functional, organism-based", "conditions": "time 5.0 day"}, "Rattus norvegicus [20]": {"system": "Rattus norvegicus", "experiment": "as §1, with “increase” for “reduction”, “neuronal arrangements in brain” for “escape latency time”, “Nissls staining based light microscopic analysis” for “Morris water maze test”", "format": "functional, organism-based", "conditions": "time 5.0 day"}, "[21]": {"experiment": "Toxicity in Drosophila melanogaster Oregon R-positive assessed as reduction in cell viability upto 50 uM measured until 15 days", "conditions": "360 h, time 15 day"}, "[22]": {"experiment": "Toxicity in Drosophila melanogaster Oregon R-positive assessed as reduction in eclosed flies at pupal stage at 100 uM measured until 15 days relative to control", "parameters": "scale not given: the % may be the effect or the level left", "conditions": "360 h, time 15 day"}, "Drosophila melanogaster [23]": {"system": "Drosophila melanogaster", "experiment": "Reversal of ey-GAL4 driven UAS-amyloid beta induced cellular toxicity in Drosophila melanogaster Oregon R-positive model assessed as increase in cell viability in gut at 1 uM by MTT assay relative to control", "format": "functional"}, "Drosophila melanogaster [24]": {"system": "Drosophila melanogaster", "experiment": "Reversal of ey-GAL4 driven UAS-amyloid beta induced cellular toxicity in Drosophila melanogaster Oregon R-positive model assessed as increase in cell viability in gut at 5 uM by MTT assay relative to control", "format": "functional"}, "Drosophila melanogaster [25]": {"system": "Drosophila melanogaster", "experiment": "Reversal of ey-GAL4 driven UAS-amyloid beta induced cellular toxicity in Drosophila melanogaster Oregon R-positive model assessed as increase in cell viability in gut at 50 uM by MTT assay relative to control", "format": "functional"}, "Drosophila melanogaster [26]": {"system": "Drosophila melanogaster", "experiment": "Reversal of ey-GAL4 driven UAS-amyloid beta induced cellular toxicity in Drosophila melanogaster Oregon R-positive model assessed as increase in rescued eye phenotype at 10 uM by trinocular stereo-zoom microscope relative to control", "format": "functional"}, "Drosophila melanogaster [27]": {"system": "Drosophila melanogaster", "experiment": "Reversal of ey-GAL4 driven UAS-amyloid beta induced cellular toxicity in Drosophila melanogaster Oregon R-positive model assessed as reduction in severe ommatidial death eye phenotype at 10 uM by trinocular stereo-zoom microscope relative to control", "format": "functional", "parameters": "scale not given: the % may be the effect or the level left"}, "Drosophila melanogaster [28]": {"system": "Drosophila melanogaster", "experiment": "Reversal of ey-GAL4 driven UAS-amyloid beta induced cellular toxicity in Drosophila melanogaster Oregon R-positive model assessed as reduction in severe ommatidial death eye phenotype at 15 uM by trinocular stereo-zoom microscope relative to control", "format": "functional", "parameters": "scale not given: the % may be the effect or the level left"}, "Drosophila melanogaster [29]": {"system": "Drosophila melanogaster", "experiment": "Reversal of ey-GAL4 driven UAS-amyloid beta induced cellular toxicity in Drosophila melanogaster Oregon R-positive model assessed as reduction in mild ommatidial death eye phenotype at 10 uM by trinocular stereo-zoom microscope relative to control", "format": "functional", "parameters": "scale not given: the % may be the effect or the level left"}, "[30]": {"experiment": "Drug concentration in male Wistar rat brain homogenate at 10 mg/kg, po measured after 4 days", "format": "ADME, organism-based", "conditions": "time 4 day, read-out: Ct"}, "[31]": {"experiment": "Cmax in male Wistar rat at 20 mg/kg, po measured upto 32 hrs by high-performance liquid chromatography", "format": "ADME, organism-based", "conditions": "in vivo"}, "[32]": {"experiment": "AUC (0 to t) in male Wistar rat at 20 mg/kg, po measured upto 32 hrs by high-performance liquid chromatography", "format": "ADME, organism-based", "conditions": "in vivo"}, "[33]": {"experiment": "Elimination half life in male Wistar rat at 20 mg/kg, po measured upto 32 hrs by high-performance liquid chromatography", "format": "ADME, organism-based", "conditions": "in vivo, read-out: beta t1/2 (converted)"}, "[34]": {"experiment": "MRT in male Wistar rat at 20 mg/kg, po measured upto 32 hrs by high-performance liquid chromatography", "format": "ADME, organism-based", "conditions": "in vivo"}, "in vitro": {"experiment": "in vitro", "conditions": "PAMPA"}},
  "note": "The source made the active and inactive calls. The rule behind the calls is not given here.",
  "data": [
    {"smiles": "COc1cc2ncnc(N3CCN(Cc4ccccc4)CC3)c2cc1OC", "values": [
      {"measurement": "IC50", "setting": "Acetylcholinesterase [1]", "result": 283, "unit": "nM"},
      {"measurement": "IC50", "setting": "Cholinesterase", "result": "> 10000", "unit": "nM"},
      {"measurement": "Activity", "setting": "Acetylcholinesterase [2]", "result": "Active"},
      {"measurement": "Ki", "setting": "Acetylcholinesterase [3]", "result": 246, "unit": "nM"},
      {"measurement": "inhibition", "setting": "Acetylcholinesterase [4]", "result": "Active"},
      {"measurement": "inhibition", "setting": "[5]", "result": "Dose-Dependent Effect"},
      {"measurement": "inhibition", "setting": "[6]", "result": "Dose-Dependent Effect"},
      {"measurement": "inhibition", "setting": "[7]", "result": "Active"},
      {"measurement": "inhibition", "setting": "[8]", "result": "Active"},
      {"measurement": "Activity", "setting": "[9]", "result": "Active"},
      {"measurement": "Activity", "setting": "[10]", "result": "Non-Toxic"},
      {"measurement": "Activity", "setting": "[11]", "result": "Toxic"},
      {"measurement": "Activity", "setting": "[12]", "result": "Non-Toxic"},
      {"measurement": "Activity", "setting": "[13]", "result": "Non-Toxic"},
      {"measurement": "Activity", "setting": "[14]", "result": "Non-Toxic"},
      {"measurement": "Activity", "setting": "[15]", "result": "Non-Toxic"},
      {"measurement": "Activity", "setting": "Rattus norvegicus [16]", "result": "Active"},
      {"measurement": "Activity", "setting": "Rattus norvegicus [17]", "result": "Active"},
      {"measurement": "Activity", "setting": "Rattus norvegicus [18]", "result": "Active"},
      {"measurement": "Activity", "setting": "Rattus norvegicus [19]", "result": "Active"},
      {"measurement": "Activity", "setting": "Rattus norvegicus [20]", "result": "Active"},
      {"measurement": "Activity", "setting": "[21]", "result": "Non-Toxic"},
      {"measurement": "Activity", "setting": "[22]", "result": 65, "unit": "%"},
      {"measurement": "Activity", "setting": "Drosophila melanogaster [23]", "result": 69, "unit": "%"},
      {"measurement": "Activity", "setting": "Drosophila melanogaster [24]", "result": 82, "unit": "%"},
      {"measurement": "Activity", "setting": "Drosophila melanogaster [25]", "result": 75, "unit": "%"},
      {"measurement": "Activity", "setting": "Drosophila melanogaster [26]", "result": 36.6, "unit": "%"},
      {"measurement": "Activity", "setting": "Drosophila melanogaster [27]", "result": 23.3, "unit": "%"},
      {"measurement": "Activity", "setting": "Drosophila melanogaster [28]", "result": 20, "unit": "%"},
      {"measurement": "Activity", "setting": "Drosophila melanogaster [29]", "result": 37, "unit": "%"},
      {"measurement": "concentration at 96 h", "setting": "[30]", "result": 633, "unit": "ng/mL"},
      {"measurement": "Cmax", "setting": "[31]", "result": 1340, "unit": "ng/mL"},
      {"measurement": "AUC(0-t) at 32 h", "setting": "[32]", "result": 6990, "unit": "ng·h/mL"},
      {"measurement": "half-life", "setting": "[33]", "result": 3.11, "unit": "h"},
      {"measurement": "MRT", "setting": "[34]", "result": 6.07, "unit": "h"},
      {"measurement": "Papp at 18 h, 25 ug/ml", "setting": "in vitro", "result": 6.03, "unit": "×10⁻⁶ cm/s"}
    ]}
  ]
}
